Results reported in patent US11607422B2, “Uttroside B and derivatives thereof as therapeutics for hepatocellular carcinoma” (Rajiv Gandhi Centre for Biotechnology, an Autonomous …, priority 2016, dated 2023).
Where two headings read alike, the source gives them in different places.

Columns and labels:
human cancer cells = settings: literature ref 22; cited from earlier work
[1] = literature ref 9; cell line not stated; cited from earlier work
U937 leukemia cell line = settings: literature ref 14; read-out: IC50, cytotoxicity against U937 leukemia cell line; cited from earlier work
HepG2 cells [2] = settings: literature ref 14; read-out: IC50 against HepG2 cells; cited from earlier work
LC3 in HepG2 cells = assay: Autophagy flux (LC3I to LC3II conversion) with Bafilomycin; assay type: cell-based, human; settings: HepG2, LC3 II accumulation
Method: Concentration dependent effect of BafilomycinAl on the endogenous conversion of LC3I to LC3II in HepG2 cells. Cells were treated with Bafilomycin Al at different concentration and the whole cell lysate was resolved on a 15% gel and immunoblotted against LC3 antibody. Uttroside B is an autophagy inducer in HepG2 cells as analysed by autophagy flux using Bafilomycin Al. […] The increase in LC3 II could not be considered as a fool proof of autophagic induction because a blockage in any step leading from autophagosome maturation to its fusion with lysosomes could cause its accumulation. So, the effect of Uttroside B in HepG2 cells were analyzed for autophagy flux, a more accurate read out of autophagy on co-treatment with Bafilomycin, an autophagy-lysosome inhibitor. Bafilomycin A, blocks autophagy by blocking the fusion of autophagosome with lysosome which cause the accumulation of autophagosome or LC3. First, the concentration of Bafilomycin Al required for saturating the blockage of autophagy-lysosome fusion was standardized. The efficacy of Bafilomycin Al, in terms of blocking autophagosome degradation in HepG2, was found peaked at 10 nM, beyond which no further accumulation of LC3 II was noted, which matched with the earlier reports.^32,37,38 […]

[3] = tested on: PARP and caspase 9 in HepG2 cells; assay: Western blot of PARP and caspase 9 cleavage with inhibition of autophagy; assay type: cell-based, human; settings: for effect of autophagy inhibitor on Uttroside B-induced caspase 9 activation: HepG2, Western blot; for effect of autophagy inhibitor on Uttroside B-induced cleavage of PARP: HepG2, pretreatment with inhibitor
Method: Western blot analysis. Approximately 0.5×10^6 cells were grown on 60 mm culture plates and exposed to drugs as indicated for the desired time. The cells were then scraped out, washed in ice cold 1× PBS and pelleted down at 13000 rpm for 2 min. The pelleted cells were suspended in 150 μL of ice-cold whole cell lysis buffer[(20 mMTris of pH 7.4, 250 mM NaCl, 2 mM EDTA, 0.1% Triton, 1 mM DTT (1,4-dithiothreitol), 0.5 mM PMSF, 4 mM sodium orthovanadate, aprotinin (5 mg m/L) and leupeptin (5 mg m/L)] and kept in ice for 30 min, with intermittent vortexing every 5 min. After incubation, the lysate was centrifuged at 13000 rpm for 10 min at 4° C. and the supernatant was collected. The total protein content in the lysate was estimated by Bradford's method, and was then denatured by boiling with 5× loading dye before separating the proteins by SDSpolyacrylamidegel electrophoresis (SDS-PAGE). Following electrophoresis, the polyacrylamide gel and a PVDF membrane were equilibrated with Towbins buffer (1 L, 25 mM Tris, 192 mM glycine, 20% (v/v) methanol (pH 8.3) for 15-30 min and the separated proteins were electro-transferred to PVDF membrane (Hybond-P, GE Healthcare Life science) using Bio-Rad Mini PROTEAN III wet blot apparatus at 100 V for 2 h at cold conditions. After the transfer, the membrane was rinsed with TBS-T (20 mM Tris pH 7.5, 150 mM NaCl, 0.1% Tween 20) buffer and stained with Ponceau-S to ensure uniform transfer. After washing off the Ponceau stain with TBST, the membrane was exposed to 5% fat free milk in TBST buffer for 1 h at room temperature to block the nonspecific binding of antibodies, followed by overnight incubation with the primary antibody [1:1000 dilution] in 3% BSA in TBST buffer at 4° C. Excess antibody was washed off with TBST buffer and incubated with corresponding secondary antibody [1:5000 dilution] coupled with horse radish peroxidase (HRP) in 5% fat free milk in TBST buffer. The bands were visualized using enhanced chemiluminescence kit (Millipore, St Charles, Mo., United States) following manufacturer's protocol.
HepG2 was transiently transfected with Beclin siRNA and control siRNA using Lipofectamine LTX Plus reagent kit according to manufacturer's protocol (Invitrogen, USA). 0.35×10^6cells per well were seeded in a six well tissue culture plate containing 2 ml antibiotic-free normal growth medium supplemented with FBS and the cells were incubated to attain 60% confluency. Beclin siRNA duplex solution (Solution A) was added directly to the dilute transfection reagent (LP LTX plus reagent) (Solution B). The solution was mixed gently by pipetting up and down and incubated for 45 minutes at room temperature. The cells were washed gently with 2 ml of transfection medium (optiMEM medium). […]

[4] = literature refs 3, 25; cited from earlier work
HepG2 cells [5] = assay: MTT assay of Uttroside B with autophagy inhibitor; assay type: cell-based, human; settings: 3 MA 1 mM, 72 h
HepG2 cells [6] = assay: Cell cycle analysis by flow cytometry (propidium iodide); assay type: cell-based, human; settings: HepG2, 25 μM, 24 h
Method: FIGS. 3A-3F show Uttroside B induces caspase-dependent apoptosis leading to PARP cleavage in HepG2 cells while being independent of cell cycle. FIGS. 3A-3E are images of Western blots showing caspase activation in HepG2 cells. Whole-cell extracts were prepared after treating HepG2 cells with indicated concentrations of Uttroside B for 48 h, the whole cell lysate was resolved on a 15% gel and subjected to western blotting using antibodies against the caspases 8, 9 & 7 detected by ECL. HepG2 cells were treated with Uttroside B for 48 h at different concentrations and the whole cell lysate was resolved on a 10% gel, immunoblotted against anti-PARP and detected by ECL. […] HepG2 cells were treated with Uttroside B for 48 h, stained with propidium iodide and the cell cycle analysis was done using fluorescence activated cell sorter. Curcumin 25 μM (24 h) is used as positive control.
Flow cytometry: Cell cycle analysis helps in distinguishing the distribution of a population of cells to the different stages of the cycle. Cell cycle analysis using flow cytometry was performed to investigate the cell cycle arrest induced by Uttroside B. Cell cycle analysis is performed by quantitative measurement of nuclear DNA content in a cell by staining DNA with propidium iodide. […]

hepatocellular carcinoma = settings: cited from earlier work
HepG2 cells [7] = assay: MTT cell viability assay in HepG2 cells; assay type: cell-based, human; settings: Homo sapiens, HepG2, 72 h, read-out: IC50, cytotoxicity towards HepG2 cells
Method: Stocks of crude extracts and isolated compound of S. nigrum was prepared in DMSO for the in vitro studies and stored at −20° C. The DMSO concentration in all studies, including controls, was ≤0.2%. Cell viability assay was performed after 72 h of drug treatment while whole cell lysate preparation and cell cycle analysis were done after 24 h and 48 h of drug treatment. For studying NF-κB and AP-1, Uttroside B was incubated for 2 h before extraction.
MTT [3-(4,5-dimethylthiazole-2-yl)-2,5-diphenyltetrazolium bromide] assay is a standard colorimetric assay, suitable for analyzing proliferation, viability, and cytotoxicity. Briefly, the HepG2 cells were seeded in 96-well plates (2000 cells/well). […] Fresh media containing 25 μL of MTT solution (5 mg/mL in PBS) and 75 μL of complete medium was added to the wells and incubated for 2 h. At the end of incubation, lysis buffer (20% sodium dodecyl sulphate in 50% dimethyl formamide)was added to the wells (0.1 mL/well) and incubated for another 1 h at 37° C. At the end of incubation, the optical density was measured at 570 nm using ELISA plate reader (Bio-Rad). The relative cell viability in percentage was calculated as (A570 of treated samples/A570 of untreated samples)×100. The IC50 values were extrapolated from polynomial regression analysis of study data.^17

C[C@H]1CC[C@@]2(OC1)O[C@H]1C[C@H]3[C@@H]4CC[C@@H]5C[C@@H](O)C[C@@H](O[C@@H]6OC[C@@H](O)[C@H](O)[C@H]6O[C@@H]6O[C@@H](C)[C@H](O)[C@@H](O)[C@H]6O)[C@]5(C)[C@H]4CC[C@]3(C)[C@H]1[C@@H]2C [RCE-4, (1β,3β,5β,25S)-spirostan-1,3-diol1-[α-L-rhamnopyranosyl-(1→2)-β-Dxylopyranoside]]
growth inhibition and apoptosis (human cancer cells): induce growth inhibition and apoptosis in human cancer cells

C[C@@H]1CC[C@@]2(OC1)O[C@H]1C[C@H]3[C@@H]4CC[C@H]5C[C@@H](O[C@@H]6O[C@H](CO)[C@H](O[C@@H]7O[C@H](CO)[C@@H](O)[C@H](O[C@@H]8OC[C@@H](O)[C@H](O)[C@H]8O)[C@H]7O[C@@H]7O[C@H](CO)[C@@H](O)[C@H](O)[C@H]7O)[C@H](O)[C@H]6O)CC[C@]5(C)[C@H]4CC[C@]3(C)[C@H]1[C@@H]2C [Degalactotigonin]
cytotoxicity [1]: 0.25 µM

C[C@H](CC[C@@]1(O)O[C@H]2C[C@H]3[C@@H]4CC[C@H]5C[C@@H](O[C@@H]6O[C@H](CO)[C@H](O[C@@H]7O[C@H](CO)[C@@H](O)[C@H](O[C@@H]8OC[C@@H](O)[C@H](O)[C@H]8O)[C@H]7O[C@@H]7O[C@H](CO)[C@H](O)[C@H](O)[C@H]7O)[C@H](O)[C@H]6O)CC[C@]5(C)[C@H]4CC[C@]3(C)[C@H]2[C@@H]1C)CO[C@@H]1O[C@H](CO)[C@@H](O)[C@H](O)[C@H]1O [Parvispinoside B]
IC50 (U937 leukemia cell line): 0.5 µM | IC50 (HepG2 cells [2]): > 100 µM

CO/C1=C\C(C)=C\[C@@H](C)[C@@H](O)[C@@H](C)C/C(C)=C/C=C/[C@H](OC)[C@@H]([C@@H](C)[C@@H](O)[C@H](C)[C@@]2(O)C[C@@H](O)[C@H](C)[C@@H](C(C)C)O2)OC1=O [Bafilomycin Al]
concentration at which blocking of autophagosome degradation peaked (LC3 in HepG2 cells): 10 nM | effect of autophagy inhibitor on Uttroside B-induced caspase 9 activation [3]: enhanced | effect of autophagy inhibitor on Uttroside B-induced cleavage of PARP [3]: enhanced

C[C@@H]1CC[C@@]2(OC1)O[C@H]1C[C@H]3[C@@H]4CC=C5C[C@@H](O)CC[C@]5(C)[C@H]4CC[C@]3(C)[C@H]1[C@@H]2C [diosgenin]
effect on cell cycle [4]: block cell cycle in G0/G1 phase

Cn1cnc(N)c2ncnc1-2 [3-MA]
effect of autophagy inhibitor on Uttroside B-induced cytotoxicity (HepG2 cells [5]): significantly enhanced | effect of autophagy inhibitor on Uttroside B-induced caspase 9 activation [3]: enhanced | effect of autophagy inhibitor on Uttroside B-induced cleavage of PARP [3]: enhanced

COc1cc(/C=C/C(=O)CC(=O)/C=C/c2ccc(O)c(OC)c2)ccc1O [curcumin, reference compound]
effect on cell cycle (positive control) (HepG2 cells [6]): readily induced cell cycle arrest at G2/M

C[C@@H]1CC[C@@]2(OC1)O[C@H]1C[C@H]3[C@@H]4CC[C@@H]5C[C@@H](O)CC[C@]5(C)[C@H]4CC[C@]3(C)[C@H]1[C@@H]2C [smilagenin]
effect on cell cycle [4]: block cell cycle in G0/G1 phase

CNC(=O)c1cc(Oc2ccc(NC(=O)Nc3ccc(Cl)c(C(F)(F)F)c3)cc2)ccn1 [sorafenib]
prolongation of survival rate (hepatocellular carcinoma; HCC patients): up to 20% | side effects (hepatocellular carcinoma; reported): severe side effects | IC50 (HepG2 cells [7]): 5.8 µM

C[C@@H]1CC[C@@]2(OC1)O[C@H]1C[C@H]3[C@@H]4CC[C@H]5C[C@@H](O)CC[C@]5(C)[C@H]4CC[C@]3(C)[C@H]1[C@@H]2C [tigogenin]
effect on cell cycle [4]: no effect on cell cycle
